Results as given in patent US8008345B2, “Dermal therapy using phosphate derivatives of electron transfer agents” (Vital Health Sciences Pty. Ltd., priority 2001, dated 2011).
Counter-ions that a name gives are not always drawn.

Legend:
[1] = tested on: insect bite; assay: Case: insect bite with blistering and inflammation (Example 9); assay type: in vivo, human; settings: oral anti-histamine plus topical corticosteroid cream together, first day
Source text: In this example, a method of the invention is used to treat erythema and inflammation symptoms associated with an insect bite.

[2] = tested on: photodamaged skin (face); assay: Eight-week pilot study on photodamaged skin: clinical grading of efficacy (aging) parameters; assay type: in vivo, human; settings: pilot study outcome, stated for the active
Protocol: An eight-week double blind vehicle controlled pilot study was conducted to evaluate the effects of a topical treatment comprising tocopheryl phosphate complexes on improving the appearance of photodamaged skin. Ten female subjects completed the pilot study.
At Visit 1 (screening), prospective subjects completed a health and eligibility questionnaire, and signed a photography release form and an informed consent agreement. Subjects were examined for study eligibility criteria according to the following classifications: […]
Qualified subjects returned to the clinic for Visit 2 (baseline). Subjects participated in the following clinical grading and instrumentation procedures: • Objective irritation (erythema, edema, scaling/skin dryness, rash) and subjective irritation (burning, itching, stinging, tingling, tightness) were assessed globally on the face. Results were recorded using the following scale: 0=none, 1=mild, 2=moderate, and 3=severe. • The following efficacy (aging) parameters were graded at the specified locations using a analog scale (extremes of the scale are listed in parentheses). […]
Mean scores for clinical grading parameters and pinch recoil measurements at Week 4 and Week 8 were statistically compared to baseline using a paired t-test at the p≦0.05 significance level. Mean percent change from baseline was calculated for all attributes. […]

[3] = tested on: facial skin; design: species or system human; settings: in vivo
Protocol: Qualified subjects returned to the clinic for Visit 2 (baseline). Subjects participated in the following clinical grading and instrumentation procedures: • Objective irritation (erythema, edema, scaling/skin dryness, rash) and subjective irritation (burning, itching, stinging, tingling, tightness) were assessed globally on the face. Results were recorded using the following scale: 0=none, 1=mild, 2=moderate, and 3=severe. • The following efficacy (aging) parameters were graded at the specified locations using a analog scale (extremes of the scale are listed in parentheses).
Subjects were assigned to use test material Product A (cream from Example 4) or Product B (Vehicle control: emulsion system) according to a predetermined randomization. […]
Mean scores for clinical grading parameters and pinch recoil measurements at Week 4 and Week 8 were statistically compared to baseline using a paired t-test at the p≦0.05 significance level. Mean percent change from baseline was calculated for all attributes. […] For self-assessment questionnaire responses at Week 4 and Week 8, mean response values and standard deviations were calculated for each question.
Irritation parameters were graded according to a four-point scale where 0=None, 1=Mild, 2=Moderate, and 3=Severe. Efficacy parameters were assessed according to an analog scale where 0 represents positive scores and 10 represents negative scores.

Compound: CC(C)(C(=O)O)c1ccc(C(O)CCCN2CCC(C(O)(c3ccccc3)c3ccccc3)CC2)cc1 (stereo not drawn) [fexofenadine hydrochloride]
- improvement of bite [1]: little improvement

Compound: Lauryliminodipropionic Acid Tocopheryl Phosphate
- appearance of fine lines, wrinkles and skin elasticity in photodamaged skin [2]: improved the appearance of fine lines, wrinkles and skin elasticity
- objective or subjective skin irritation responses in users [3]: did not produce objective or subjective skin irritation responses
